Reference: patent US7932262B2 (Novartis AG, priority 2006, dated 2011)
Read-outs that look alike come from different tables or passages of the source.

Experiments:
[1] = target: T1, PDK1 kinase (Homo sapiens, UniProt O15530); assay: PDK1 Kinase Alpha Screen Assay; format: biochemical; conditions: read-out: PDK1 IC50
T1 sequence (O15530 1-556): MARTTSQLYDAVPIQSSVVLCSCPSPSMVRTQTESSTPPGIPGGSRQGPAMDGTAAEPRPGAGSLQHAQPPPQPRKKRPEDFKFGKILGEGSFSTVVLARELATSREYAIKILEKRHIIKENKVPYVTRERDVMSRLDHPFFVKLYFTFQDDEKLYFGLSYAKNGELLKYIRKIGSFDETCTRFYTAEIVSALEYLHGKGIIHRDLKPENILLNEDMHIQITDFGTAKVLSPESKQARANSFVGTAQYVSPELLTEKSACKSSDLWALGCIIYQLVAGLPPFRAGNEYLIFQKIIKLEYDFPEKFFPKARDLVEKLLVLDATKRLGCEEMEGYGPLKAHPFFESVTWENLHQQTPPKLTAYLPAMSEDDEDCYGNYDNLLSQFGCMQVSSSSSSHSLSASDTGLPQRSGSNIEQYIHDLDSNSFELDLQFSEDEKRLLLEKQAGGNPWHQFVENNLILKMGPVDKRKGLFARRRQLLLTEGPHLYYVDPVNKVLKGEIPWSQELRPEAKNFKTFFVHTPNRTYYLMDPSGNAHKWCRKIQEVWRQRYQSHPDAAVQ
Summary of the method: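 PDK1 phosphorylated 50 nM biotinylated PDK1-4 peptide with 10 uM ATP in Tris pH 7.5, 10 mM MgCl2, 2 mM DTT, 2.5% DMSO for 3-18 hours. After EDTA stop, phosphopeptide was detected by AlphaScreen using phospho-(Ser/Thr) PKA substrate antibody with protein A/streptavidin beads, read after overnight incubation.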

[2] = system: PC-3 cells; assay: Cell Proliferation Assay (Cell Titer Glo), PC-3 cell line; format: cell-based; conditions: Homo sapiens
Summary of the method: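 PC-3 cells, 1000 cells/well, left to adhere 3-5 h, then exposed for 3 days at 37° C to compounds as 1:3 serial dilutions from 500× DMSO stocks diluted in growth medium. Medium then replaced with fresh medium and viability read by Cell Titer Glo luminescence.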

[3] = system: pAkt308 (phosphorylation of Akt at T308) in PC-3 cells; assay: pAkt T308 ECL Assay in PC-3 cells; format: cell-based; conditions: Homo sapiens, 6 h, six hours with compound, read-out: PAKT308 PC3 IC50
Experimental: VI. The pAkt^T308 ECL Assay Protocol
On Day 1, PC-3 cells were seeded at 15,000 cells/well in 100 μL/well ([…]) growth media into black-walled, clear bottom, poly-L-lysine coated plates. The cells were incubated overnight in a 37° C., 5% CO2 incubator.
On Day 2, a MSD ECL plate was blocked for two hours with 150 μL per well of 3% MSD blocker A.
Test compounds were diluted to 500× in DMSO and then were subjected to further serial dilution using a BioMek 2000 instrument. DMSO diluted compounds were then diluted into growth media and then added to the cell plates.
The cell plates incubated with compounds for six hours in a 37° C., 5% CO2 incubator after which the growth medium was removed and 55 μl of MSD lysis buffer was added to cell plates on ice. The plates were lysed on ice for five minutes followed by 15 minutes of vigorous shaking on a plate shaker at 4° C. The blocked MSD assay plates were washed twice with 1×MSD wash buffer followed by the addition of cell lysate as follows: 30 μl of cell lysate was added to the pAkt308 plates and 13 μl of lysate+12 μl lysis buffer was added to the tAkt plates. The plates were then sealed and shaken at 4° C. overnight.
On Day 3, the MSD plates were washed four times with 1×MSD wash buffer then, 25 μl/well of MSD SULFO-TAG antibodies diluted to 10 nM final concentration in 1% blocker. A buffer was added to the antibody diluent which was added to assay plates. The plates were then sealed and incubated at RT for 1.5 hour. The plates were then washed twice with 1×MSD wash buffer followed by the addition of 150 μl/well of 1.5×MSD read buffer. The plates were read immediately after the addition of read buffer using a Trilux instrument. […]

[4] = system: A2780 cells; assay: Cell Proliferation Assay (Cell Titer Glo), A2780; format: cell-based; conditions: Homo sapiens; cell proliferation, A2780 cells; read-out: CPEC50 A2780
Summary of the method: (§1)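 Cells seeded at 1000/well, allowed to adhere 3-5 h, then exposed to DMSO-dissolved compounds for 3 days at 37° C., 5% CO2. Medium replaced before Cell Titer Glo addition; luminescence read after 10 min.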

[5] = system: PC3MM cells; assay: Cell Proliferation Assay (Cell Titer Glo), PC3MM; format: cell-based; conditions: cell proliferation, PC3MM cells; read-out: CPEC50 PC3MM
Summary of the method: as §1

[6] = PC-3, 72 h, PC-3 cells, 3 days incubation, read-out: CP EC50 PC3
[7] = PC-3, cell proliferation, PC3 cells, read-out: CPEC50 PC3

COc1cc(Nc2ncc3ccc(OC4CCNCC4)cc3n2)cc(OC)c1 [Compound 55, (3,5-Dimethoxy-phenyl)-[7-(piperidin-4-yloxy)-quinazolin-2-yl]-amine]
< 5 µM: IC50 [1] | EC50 [2, 6] | IC50 [3]

CC(C)NS(=O)(=O)c1ccc(Nc2ncc3ccc(OC4CCN(C(C)C)CC4)cc3n2)cc1 [Compound 58, N-Isopropyl-4-[7-(1-isopropyl-piperidin-4-yloxy)-quinazolin-2-ylamino]-benzenesulfonamide]
< 5 µM: IC50 [1] | EC50 [2, 6] | IC50 [3]

Fc1ccc(Nc2ncc3ccc(OC4CCNCC4)cc3n2)cc1 [Compound 59, (4-Fluoro-phenyl)-[7-(piperidin-4-yloxy)-quinazolin-2-yl]-amine]
< 5 µM: IC50 [1] | EC50 [2, 6] | IC50 [3]

CC(C)NS(=O)(=O)c1ccc(Nc2ncc3cccc(OC4CCNCC4)c3n2)cc1 [Compound 779, N-isopropyl-4-(8-(piperidin-4-yloxy)quinazolin-2-ylamino)benzenesulfonamide]
< 5 µM: EC50 [4] | IC50 ([1]; PDK1 Kinase Alpha Screen Assay) | EC50 [5] | EC50 [2, 7]

COCCNS(=O)(=O)c1ccc(Nc2ncc3cccc(OC4CCNCC4)c3n2)cc1 [Compound 780, N-(2-methoxyethyl)-4-(8-(piperidin-4-yloxy)quinazolin-2-ylamino)benzenesulfonamide]
< 5 µM: EC50 [4] | IC50 ([1]; PDK1 Kinase Alpha Screen Assay) | EC50 [5] | EC50 [2, 7]

O=S(=O)(NC1CC1)c1ccc(Nc2ncc3cccc(OC4CCNCC4)c3n2)cc1 [Compound 781, N-cyclopropyl-4-(8-(piperidin-4-yloxy)quinazolin-2-ylamino)benzenesulfonamide]
< 5 µM: EC50 [4] | IC50 ([1]; PDK1 Kinase Alpha Screen Assay) | EC50 [5] | EC50 [2, 7]

CC(C)N1CCC(Oc2ccc3cnc(Nc4ccc(S(N)(=O)=O)cc4)nc3c2)CC1 [Compound 794, 4-(7-(1-isopropylpiperidin-4-yloxy)quinazolin-2-ylamino)benzenesulfonamide]
< 5 µM: EC50 [4] | IC50 ([1]; PDK1 Kinase Alpha Screen Assay) | EC50 [5] | EC50 [2, 7]

CC(C)N1CCC(c2c(O)ccc3cnc(Nc4ccc(S(N)(=O)=O)cc4)nc23)CC1 [Compound 795, 4-(7-hydroxy-8-(1-isopropylpiperidin-4-yl)quinazolin-2-ylamino)benzenesulfonamide]
< 5 µM: EC50 [4] | IC50 ([1]; PDK1 Kinase Alpha Screen Assay) | EC50 [5] | EC50 [2, 7]

CC(C)NC(=O)c1ccc(Nc2ncc3cccc(OC4CCN(C(C)C)CC4)c3n2)cc1 [Compound 797, N-isopropyl-4-(8-(1-isopropylpiperidin-4-yloxy)quinazolin-2-ylamino)benzamide]
< 5 µM: EC50 [4] | IC50 ([1]; PDK1 Kinase Alpha Screen Assay) | EC50 [5] | EC50 [2, 7]

Cn1cc(-c2ccc3cnc(Nc4ccc(S(N)(=O)=O)cc4)nc3c2)cn1 [Compound 799, 4-(7-(1-methyl-1H-pyrazol-4-yl)quinazolin-2-ylamino)benzenesulfonamide]
< 5 µM: EC50 [4] | IC50 ([1]; PDK1 Kinase Alpha Screen Assay) | EC50 [5] | EC50 [2, 7]

NS(=O)(=O)c1ccc(Nc2ncc3ccc(-c4cccnc4F)cc3n2)cc1 [Compound 800, 4-(7-(2-fluoropyridin-3-yl)quinazolin-2-ylamino)benzenesulfonamide]
< 5 µM: EC50 [4] | IC50 ([1]; PDK1 Kinase Alpha Screen Assay) | EC50 [5] | EC50 [2, 7]

O=S(=O)(NCCN1CCCC1)c1ccc(Nc2ncc3cccc(OC4CCNCC4)c3n2)cc1 [Compound 810, 4-(8-(piperidin-4-yloxy)quinazolin-2-ylamino)-N-(2-(pyrrolidin-1-yl)ethyl)benzenesulfonamide]
< 5 µM: EC50 [4] | IC50 ([1]; PDK1 Kinase Alpha Screen Assay) | EC50 [5] | EC50 [2, 7]

CC(C)CN1CCC(Oc2cccc3cnc(Nc4ccc(S(N)(=O)=O)cc4)nc23)CC1 [Compound 816, 4-(8-(1-isobutylpiperidin-4-yloxy)quinazolin-2-ylamino)benzenesulfonamide]
< 5 µM: EC50 [4] | IC50 ([1]; PDK1 Kinase Alpha Screen Assay) | EC50 [5] | EC50 [2, 7]

COCCNc1ccc(-c2cccc3cnc(Nc4ccc(S(N)(=O)=O)cc4)nc23)cn1 [Compound 825, 4-(8-(6-(2-methoxyethylamlno)pyridin-3-yl)quinazoln-2-ylamino)benzenesulfonamide]
< 5 µM: EC50 [4] | IC50 ([1]; PDK1 Kinase Alpha Screen Assay) | EC50 [5] | EC50 [2, 7]

CN1CCN(c2ccc(-c3cccc4cnc(Nc5ccc(S(N)(=O)=O)cc5)nc34)cn2)CC1 [Compound 827, 4-(8-(6-(4-methylpiperazin-1-yl)pyridin-3-yl)quinazolin-2-ylamino)benzenesulfonamide]
< 5 µM: EC50 [4] | IC50 ([1]; PDK1 Kinase Alpha Screen Assay) | EC50 [5] | EC50 [2, 7]

NS(=O)(=O)c1ccc(Nc2ncc3cccc(-c4ccc(NCCN5CCCC5)nc4)c3n2)cc1 [Compound 830, 4-(8-(6-(2-(pyrrolidin-1-yl)ethylamino)pyridin-3-yl)-quinazolin-2-ylamino)benzenesulfonamide]
< 5 µM: EC50 [4] | IC50 ([1]; PDK1 Kinase Alpha Screen Assay) | EC50 [5] | EC50 [2, 7]

CN1CCC(Nc2ccc3cnc(Nc4ccc(S(N)(=O)=O)cc4)nc3c2)CC1 [Compound 843, 4-(7-(1-methylpiperidin-4-ylamino)quinazolin-2-ylamino)benzenesulfonamide]
< 5 µM: EC50 [4] | IC50 ([1]; PDK1 Kinase Alpha Screen Assay) | EC50 [5] | EC50 [2, 7]

NS(=O)(=O)c1ccc(Nc2ncc3cc(Br)cc(OC4CCNCC4)c3n2)cc1 [Compound 846, 4-(6-bromo-8-(piperidin-4-yloxy)quinazolin-2-ylamino)benzenesulfonamide]
< 5 µM: EC50 [4] | IC50 ([1]; PDK1 Kinase Alpha Screen Assay) | EC50 [5] | EC50 [2, 7]

NS(=O)(=O)c1ccc(Nc2ncc3cc(Br)cc(OC4CN5CCC4CC5)c3n2)cc1 (stereo not shown) [Compound 847, 4-(6-bromo-8-(quinuclidin-3-yloxy)quinazolin-2-ylamino)benzenesulfonamide]
< 5 µM: EC50 [4] | IC50 ([1]; PDK1 Kinase Alpha Screen Assay) | EC50 [5] | EC50 [2, 7]
